The values below come from ChEMBL document CHEMBL3045393, “Aryldiones incorporating a [1,4,5]oxadiazepane ring. Part I: Discovery of the novel cereal herbicide pinoxaden” (Bioorg Med Chem, 2009).

One data set concerns Hordeum vulgare. The data set is described as follows: Phytotoxicity against Hordeum vulgare (barley) at 500 g a.i./ha applied post-emergence measured after 15 days. The data set is classed as organism-based. The settings on record: in vivo, other, 360 h.
The next data set has as its system Setaria faberi. The data set is described as follows: Post-emergence herbicidal activity against Setaria faberi (Giant Foxtail) at 500 g a.i./ha measured after 15 days. The data set is classed as functional.
The next data set concerns Lolium perenne. The data set is described as follows: Post-emergence herbicidal activity against Lolium perenne (perennial ryegrass) at 500 g a.i./ha measured after 15 days. The data set is classed as functional.
A further data set concerns Avena fatua. Kind of data set: Post-emergence herbicidal activity against Avena fatua at 500 g a.i./ha measured after 15 days. It counts as functional.
A further data set concerns Alopecurus myosuroides. Kind of data set: Post-emergence herbicidal activity against Alopecurus myosuroides at 500 g a.i./ha measured after 15 days. It counts as functional.
A further data set deals with Triticum aestivum. The data set is described as follows: Phytotoxicity against Triticum aestivum (wheat) at 500 g a.i./ha applied post-emergence measured after 15 days. It counts as organism-based. The following applies: in vivo, other, 360 h.

As for `Cc1cc(C)c(C2C(=O)N3CC(C)C(C)CN3C2=O)c(C)c1` (stereo unspecified), the Activity in the data set with Hordeum vulgare is listed as 60%; with Setaria faberi, 60%; with Lolium perenne, 80%; in the data set on Avena fatua it was 80%; with Alopecurus myosuroides, 80%; in the data set with Triticum aestivum it was 20%.
Turning to `COC1CN2C(=O)C(c3c(C)cc(C)cc3C)C(=O)N2C1`, the Activity in the data set on Hordeum vulgare is reported as 0%; with Setaria faberi it was 60%; in the data set with Lolium perenne, 20%; in the data set on Avena fatua, 20%; with Alopecurus myosuroides, 20%; in the data set with Triticum aestivum, 0%.
As to `Cc1cc(C)c(C2C(=O)N3CCC(C)CN3C2=O)c(C)c1` (stereo unspecified), the Activity in the data set with Hordeum vulgare turned out to be 90%; with Setaria faberi, 50%; in the data set on Lolium perenne, 90%; in the data set with Avena fatua, 90%; in the data set with Alopecurus myosuroides, 90%; with Triticum aestivum, 50%.
Consider `Cc1cc(C)c(C2C(=O)N3CC(C)(C)CN3C2=O)c(C)c1`, for which the Activity in the data set with Hordeum vulgare worked out at 90%; in the data set on Setaria faberi, 90%; in the data set on Lolium perenne, 90%; in the data set on Avena fatua it was 90%; with Alopecurus myosuroides, 100%; with Triticum aestivum, 60%.
`Cc1cc(C)c(C2C(=O)N3C[C@H]4CCCC[C@H]4CN3C2=O)c(C)c1` (stereo partly specified): the Activity is 60% with Hordeum vulgare; 60% in the data set on Setaria faberi; 90% in the data set on Lolium perenne; 80% in the data set with Avena fatua; 60% in the data set on Alopecurus myosuroides; 50% in the data set on Triticum aestivum.
Take `Cc1cc(C)c(C2C(=O)N(C)N(C)C2=O)c(C)c1`: the Activity in the data set on Hordeum vulgare was determined as 20%; in the data set with Setaria faberi, 80%; in the data set on Lolium perenne it was 50%; in the data set with Avena fatua it was 40%; in the data set on Alopecurus myosuroides, 40%; in the data set on Triticum aestivum, 10%.
In the case of `Cc1cc(C)c(C2C(=O)N3CCCC(C)N3C2=O)c(C)c1` (stereo unspecified), the Activity in the data set with Hordeum vulgare amounted to 80%; with Setaria faberi, 40%; with Lolium perenne, 90%; in the data set with Avena fatua it was 90%; in the data set with Alopecurus myosuroides, 40%; in the data set with Triticum aestivum, 20%.
For `Cc1cc(C)c(C2C(=O)N3CCC(C)CCN3C2=O)c(C)c1`, the Activity in the data set on Hordeum vulgare came out at 60%; in the data set on Setaria faberi, 60%; in the data set on Lolium perenne, 80%; in the data set on Avena fatua, 90%; with Alopecurus myosuroides, 90%; with Triticum aestivum it was 20%.
Take `Cc1cc(C)c(C2C(=O)N3CC(C)CN3C2=O)c(C)c1`: the Activity was 50% with Hordeum vulgare; 50% in the data set on Setaria faberi; 60% with Lolium perenne; 90% in the data set on Avena fatua; 50% in the data set on Alopecurus myosuroides; 40% with Triticum aestivum.
With `Cc1cc(C)c(C2C(=O)N3C[C@H]4CCCC[C@@H]4CN3C2=O)c(C)c1`, the Activity in the data set with Hordeum vulgare is 50%; in the data set with Setaria faberi it was 80%; with Lolium perenne, 60%; in the data set with Avena fatua, 50%; in the data set with Alopecurus myosuroides, 60%; in the data set on Triticum aestivum, 50%.
For `Cc1cc(C)c(C2C(=O)N3CCCN3C2=O)c(C)c1`, the Activity in the data set on Hordeum vulgare turned out to be 40%; in the data set on Setaria faberi, 40%; in the data set on Lolium perenne, 80%; in the data set with Avena fatua, 20%; in the data set on Alopecurus myosuroides, 40%; with Triticum aestivum, 0%.
